Reference: PubChem BioAssay (NCI)
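Exposure lasted 48 hours, with cells grown in 96-well plates and compounds tested at five concentrations. Definition used: TGI = concentration required for complete inhibition of growth.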

Assays:
Assay in all cases: growth of human tumour cells (NCI), 48 h
TK-10 renal = system: TK-10 renal
M14 melanoma = system: M14 melanoma
U251 CNS = system: U251 CNS
UO-31 renal = system: UO-31 renal
MDA-N = system: MDA-N
ACHN renal = system: ACHN renal
UACC-62 melanoma = system: UACC-62 melanoma
NCI-H23 lung = system: NCI-H23 lung
DU-145 prostate = system: DU-145 prostate
SF-268 CNS = system: SF-268 CNS
SF-539 CNS = system: SF-539 CNS
HCT-15 colon = system: HCT-15 colon
COLO 205 colon = system: COLO 205 colon
LOX IMVI melanoma = system: LOX IMVI melanoma
MCF7 breast = system: MCF7 breast
RPMI-8226 leukemia = system: RPMI-8226 leukemia

SMILES | TGI (TK-10 renal) [µM] | TGI (M14 melanoma) [µM] | TGI (U251 CNS) [µM] | TGI (UO-31 renal) [µM] | TGI (MDA-N) [µM] | TGI (ACHN renal) [µM] | TGI (UACC-62 melanoma) [µM] | TGI (NCI-H23 lung) [µM] | TGI (DU-145 prostate) [µM] | TGI (SF-268 CNS) [µM] | TGI (SF-539 CNS) [µM] | TGI (HCT-15 colon) [µM] | TGI (COLO 205 colon) [µM] | TGI (LOX IMVI melanoma) [µM] | TGI (MCF7 breast) [µM] | TGI (RPMI-8226 leukemia) [µM]
O=S(CCCl)c1c2ccccc2nc2ccccc12 (stereo unspecified) | > 100 | > 100 | > 100 | > 100 | > 100 | > 100 | > 100 | > 100 | > 100 | > 100 | > 100 | > 100 | > 100 | > 100 | > 100 | –
CCCCCCCC/C=C\CCCCCCCC(=O)NCCN(CCN)C(=O)CCCCCCC/C=C\CCCCCCCC | > 100 | > 100 | > 100 | > 100 | – | > 100 | > 100 | > 100 | – | > 100 | – | > 100 | > 100 | > 100 | – | > 100
CCOP(=O)(OCC)/C(C#N)=C/c1cccn1CC(C)C | > 100 | > 100 | > 100 | > 100 | > 100 | > 100 | > 100 | > 100 | > 100 | > 100 | > 100 | > 100 | > 100 | > 100 | > 100 | –
CCOC(=O)CCC(NC(=O)c1ccc(OCc2nc3ccccc3n3cccc23)cc1)C(=O)OCC (stereo unspecified) | > 100 | > 100 | > 100 | > 100 | > 100 | > 100 | > 100 | > 100 | > 100 | > 100 | > 100 | > 100 | > 100 | > 100 | > 100 | –
O=C(NC1=NC2C=CC([N+](=O)[O-])=CC2S1)C(=O)Nn1c(=S)[nH]c2ccccc2c1=O (stereo unspecified) | > 100 | > 100 | > 100 | > 100 | > 100 | 85.3 | > 100 | > 100 | – | > 100 | > 100 | > 100 | – | > 100 | > 100 | > 100
O=[N+]([O-])c1cc(Cl)cc2cc(Cl)cnc12 | > 100 | > 100 | > 100 | > 100 | – | > 100 | > 100 | > 100 | > 100 | > 100 | > 100 | > 100 | > 100 | > 100 | – | > 100
O=C(NCCO)Nc1c(C(F)(F)F)cc(-c2ccccc2)[nH]c1=O | > 100 | > 100 | > 100 | > 100 | > 100 | > 100 | > 100 | > 100 | > 100 | – | – | > 100 | > 100 | > 100 | > 100 | > 100
CN(C)c1nc(NN)c2c(-c3ccccc3)c(-c3ccccc3)oc2n1 | > 100 | > 100 | > 100 | > 100 | – | > 100 | > 100 | > 100 | > 100 | > 100 | > 100 | > 100 | > 100 | > 100 | > 100 | > 100
O=c1[nH]nc(Cc2ccc(Cl)cc2)n1/N=C\c1ccc(/C=N/n2c(Cc3ccc(Cl)cc3)n[nH]c2=O)cc1 | > 100 | > 100 | 97.9 | > 100 | > 100 | > 100 | > 100 | > 100 | > 100 | > 100 | – | > 100 | > 100 | > 100 | > 100 | > 100
COc1cc([C@@H]2c3[nH]c4ccccc4c3C(Nc3ccc([N+](=O)[O-])cc3)[C@H]3COC(=O)N23)cc(OC)c1O (stereo partly specified) | 0.754 | 2.2 | 1.4 | 3.22 | 2.81 | 0.659 | 1.17 | 1.51 | 0.744 | 5.35 | 0.302 | 29.2 | 2.86 | 0.297 | 0.624 | –
CN(CCCCN(C)CCc1ccc(Cl)c(Cl)c1)CCCCN1CCCC1 | 2.99 | 2.16 | 1.97 | 0.96 | 2.64 | 3.64 | 3.42 | 3.41 | 8.92 | 3.12 | – | 3.73 | 3.8 | 1.66 | 2.84 | –
CC(=O)N[C@H]1CCCC[C@@H]1OC(C)=O | > 100 | – | > 100 | – | > 100 | > 100 | > 100 | > 100 | > 100 | – | – | > 100 | > 100 | > 100 | > 100 | > 100
COc1ccc2oc(C(=O)N3CC(CCl)c4ccc([N+](=O)[O-])cc43)cc2c1 (stereo unspecified) | > 100 | > 100 | > 100 | > 100 | – | > 100 | > 100 | > 100 | > 100 | 53.8 | > 100 | – | > 100 | > 100 | – | > 100
COc1ccc([C@H]2CC(=O)NCCCCN2)cc1 | > 100 | > 100 | > 100 | > 100 | – | > 100 | > 100 | > 100 | – | > 100 | > 100 | > 100 | > 100 | – | – | > 100
COc1ccccc1Cn1nc(OC)c2cc([N+](=O)[O-])ccc21 | 60.8 | > 100 | 29 | > 79.6 | > 100 | > 100 | – | > 89.2 | > 100 | 36.9 | > 53.5 | > 100 | > 100 | > 100 | > 100 | –
COc1ccc2c(c1)OC[C@@H]1c3cc4c(cc3O[C@H]21)OCO4 | > 100 | > 100 | > 100 | > 100 | – | > 100 | – | > 100 | – | > 100 | > 100 | > 100 | > 100 | > 100 | – | > 100
